Measurements taken from US11464750B2, “Anticancer agent and use thereof” (priority 2017, dated 2022).

Experiments:
BALL-1 cells = assay: Cell cycle analysis by flow cytometry; format: cell-based, human; conditions: 0.5 μM
Description: Specifically, BALL-1 cells were treated with 3EZ,20Ac-ingenol at a final concentration of 0.5 μM for 6, 12, 24, and 48 hours, and then a phase of a cell cycle was analyzed using flow cytometry. In addition, cells that were not treated with 3EZ,20Ac-ingenol were used as controls.

PTEN protein [1] = assay: Western blotting, PTEN protein, JeKo-1 cells; format: cell-based, human; conditions: 0.5 μM
Description: (§1) Specifically, first, JeKo-1 cells were cultured for 0 (control), 12, 24, and 48 hours in the presence of 0.5 μM of 3EZ,20Ac-ingenol. In addition, Panc-1 cells were cultured for 0 (control), 12, 24, and 48 hours in the presence of 3 μM of 3EZ,20Ac-ingenol.
(§2) Subsequently, abundances of PTEN protein in entire cell fractions, nuclear fractions, and cytoplasm fractions of the respective cells were analyzed by Western blotting using an anti-PTEN antibody (Santa Cruz). Furthermore, as a loading control, actin protein was detected using an anti-actin antibody (Sigma).

JeKo-1 cells = assay: MTT assay, JeKo-1 cells; format: cell-based, human; conditions: 48 hours
Description: (§3) JeKo-1 cells of a cell line derived from a human mantle cell lymphoma were seeded in a 96-well plate at 1×10^4 cells/well/100 μL. In addition, Panc-1 cells of a cell line derived from a human pancreatic cancer were seeded in a 96-well plate at 3×10^3 cells/well/100 μL.
(§4) Subsequently, 3EZ,20Ac-ingenol at final concentrations of 0 (control), 0.1, 0.5, 1, 5, and 10 μM was added the wells of the respective cells, and culturing was performed for 48 hours. Subsequently, cell proliferation was examined by MTT assay using a Cell Proliferation Kit I (Roche Applied Science).
(§5) First, JeKo-1 cells were seeded in a 96-well plate at 1×10^4 cells/well/100 μL. Subsequently, irinotecan at a final concentration of 0 (control), 0.5, 1, 5, 10, 20, and 30 μM was added to the wells of the cells and culturing was performed for 48 hours. In addition, Panc-1 cells were seeded in a 96-well plate at 3×10^3 cells/well/100 μL. Subsequently, irinotecan at a final concentration of 0 (control), 0.5, 1, 5, 10, 20, 30, and 50 μM was added to the wells of the cells and culturing was performed for 48 hours. Subsequently, cell proliferation was examined by MTT assay using a Cell Proliferation Kit I (Roche Applied Science).

[2] = tested on: phosphorylated p53 (p-p53) protein; assay: Western blotting, phosphorylated p53, JeKo-1 cells; format: cell-based, human; conditions: 0.5 μM, entire cells
Description: Specifically, JeKo-1 cells were cultured for 0 (control), 12, 24, and 48 hours in the presence of 0.5 μM of 3EZ,20Ac-ingenol. In addition, Panc-1 cells were cultured for 0 (control), 12, 24, and 48 hours in the presence of 3 μM of 3EZ,20Ac-ingenol.
Subsequently, ATR protein, p53 protein, and phosphorylated p53 (hereinafter also referred to as “p-p53”) protein in the respective cells were respectively detected using an anti-ATR antibody (Cell Signaling Technology), an anti-p53 antibody (Santa Cruz), and an anti-p-p53 antibody (Cell Signaling Technology). Furthermore, as a loading control, actin protein was detected using an anti-actin antibody (Sigma).

Panc-1 cells [3] = assay: Cell Death Detection ELISA, Panc-1; format: cell-based, human; conditions: 3 μM
Description: The induction of apoptosis by 3EZ,20Ac-ingenol treatment was examined by detecting histone-binding DNA fragmentation in the cytoplasm using a Cell Death Detection […] kit (Roche Applied Science).
Specifically, Panc-1 cells were inserted into tubes at 5×10^3 cells/well/100 μL, and incubated for 6, 12, 24, 48, and 72 hours in the presence of 3EZ,20Ac-ingenol at a final concentration of 3 μM. Subsequently, the respective cells were lysed in a lysis buffer. Subsequently, the supernatant of cell debris of the respective cells was collected and transferred to an ELISA plate, and an absorbance at a wavelength of 405 nm was measured to measure the induction of apoptosis.

PTEN protein [4] = assay: Western blotting, PTEN protein, Panc-1 cells; format: cell-based, human; conditions: 3 μM
Description: as §1, §2

topoisomerase = conditions: cited from earlier work
[5] = tested on: phosphorylated H2AX (γH2AX); assay: Western blotting, phosphorylated H2AX, Panc-1 cells; format: cell-based, human; conditions: 3 μM, 12, 24, 48 hours
Description: Specifically, JeKo-1 cells were cultured for 0 (control), 12, 24 and 48 hours in the presence of 0.5 μM of 3EZ,20Ac-ingenol. In addition, Panc-1 cells were cultured for 0 (control), 12, 24, and 48 hours in the presence of 3 μM of 3EZ,20Ac-ingenol.
Subsequently, phosphorylation of H2AX in the respective cells was detected using an anti-phosphorylated-H2AX antibody (Millipore). In addition, p21 protein was detected using an anti-p21 antibody (Cell Signaling Technology). Furthermore, as a loading control, actin protein was detected using an anti-actin antibody (Sigma).

Panc-1 cells [6] = assay: MTT assay, Panc-1 cells; format: cell-based, human; conditions: 48 hours, read-out: IC50 with respect to the Panc-1 cells
Description: as §3, §4, §5

DT40 cells = conditions: stop in the G2/M phase; cited from earlier work
p-Akt (Ser^473) = assay: Western blotting, p-Akt, JeKo-1 cells; format: cell-based, human; conditions: 0.5 μM
Description: as §1
Subsequently, by Western blotting using an anti-Akt antibody (Cell Signaling Technology) and an anti-p-Akt (Ser^473) antibody (Cell Signaling Technology), abundances of total amounts of Akt protein and p-Akt in the entire cell fractions, nuclear fractions, and cytoplasm fractions of the respective cells were analyzed. Furthermore, as a loading control, actin protein was detected using an anti-actin antibody (Sigma).

[7] = cytoplasm fraction, 12 hours to 24 hours
[8] = entire cell fraction, 12 hours until 48 hours
[9] = nuclear fraction, 12 hours to 24 hours

## CCCCC/C=C\C=C\C(=O)O[C@H]1C(C)=C[C@]23C(=O)[C@@H](C=C(COC(C)=O)[C@@H](O)[C@]12O)[C@H]1[C@@H](C[C@H]3C)C1(C)C [3EZ,20Ac-ingenol, 3-O-(2′E,4′Z-decadienoyl)-20-O-acetylingenol]
BALL-1 cells; after 6 hours
  proportion of S-phase cells: 68%
BALL-1 cells; after 12 hours and 24 hours
  proportion of G2/M-phase cells: about 3%
  proportion of S-phase cells: 75%
BALL-1 cells; after 24 hours
  proportion of G1-phase cells: about 19%
PTEN protein [1]; [7]
  abundance of PTEN protein: an increase in abundance of PTEN protein in the cytoplasm fraction was observed
PTEN protein [1]; cytoplasm fraction, 48 hours
  abundance of PTEN protein: a decrease in abundance of PTEN protein was observed
PTEN protein [1]; [8]
  abundance of PTEN protein: an abundance of PTEN protein increased
PTEN protein [1]; [9]
  abundance of PTEN protein: an increase in abundance of PTEN protein in the nuclear fraction was observed
JeKo-1 cells; 1 to 10 μM of 3EZ,20Ac-ingenol
  proliferation inhibition of JeKo-1 cells: grown cells were almost eliminated
JeKo-1 cells; MTT assay, read-out: IC50 with respect to the JeKo-1 cells
  IC50: 500 nM
[2]
  phosphorylation of p53: phosphorylation of p53 was not confirmed
Panc-1 cells [3]
  DNA fragmentation (apoptosis), onset: DNA fragmentation started 24 hours after the incubation
Panc-1 cells [3]; 48 hours and 72 hours
  amount of fragmented DNA (apoptosis): the amount of fragmented DNA further increased
PTEN protein [4]; [7]
  abundance of PTEN protein: an increase in abundance of PTEN protein in the cytoplasm fraction was observed
PTEN protein [4]; cytoplasm fraction, 48 hours
  abundance of PTEN protein: a decrease in abundance of PTEN protein was observed
PTEN protein [4]; [8]
  abundance of PTEN protein: an abundance of PTEN protein increased
PTEN protein [4]; [9]
  abundance of PTEN protein: an increase in abundance of PTEN protein in the nuclear fraction was observed
topoisomerase
  DNA cleavage: does not cause DNA cleavage
[5]
  phosphorylation of H2AX: phosphorylation of H2AX was not detected
Panc-1 cells [6]
  IC50: 3000 nM
DT40 cells
  cell proliferation of DT40 cells: stops cell proliferation of DT40 cells
p-Akt (Ser^473); cytoplasm fraction, 12 to 48 hours
  abundance of p-Akt: a decrease in abundance of p-Akt was clearly recognized
p-Akt (Ser^473); entire cell fraction
  abundance of p-Akt: a slight decrease in abundance of p-Akt was observed
p-Akt (Ser^473); nuclear fraction
  abundance of p-Akt: no change in an abundance of p-Akt was recognized
